Test results reported in US10961222B2, “Chemical compound of isocitrate dehydrogenase inhibitor, and application thereof” (NANJING SANHOME PHARMACEUTICAL CO., LTD., priority 2016, dated 2021).

How the values were obtained:
[1] = target: T1, U87-MG cell line of overexpressed mutant IDH2 (R140Q) (Homo sapiens, UniProt P48735, R140Q); experiment: Cell activity in vitro: 2-HG in culture supernatant of U87-MG (IDH2-R140Q) cells by LC-MS/MS; type: cell-based; conditions: U87-MG (IDH2-R140Q) cells, 72 hours, 2-HG in supernatant; read-out: IC50 (2-HG remaining compared to untreated)
T1 construct: expressed in transfected cells
T1 sequence (P48735 40-452 R140Q): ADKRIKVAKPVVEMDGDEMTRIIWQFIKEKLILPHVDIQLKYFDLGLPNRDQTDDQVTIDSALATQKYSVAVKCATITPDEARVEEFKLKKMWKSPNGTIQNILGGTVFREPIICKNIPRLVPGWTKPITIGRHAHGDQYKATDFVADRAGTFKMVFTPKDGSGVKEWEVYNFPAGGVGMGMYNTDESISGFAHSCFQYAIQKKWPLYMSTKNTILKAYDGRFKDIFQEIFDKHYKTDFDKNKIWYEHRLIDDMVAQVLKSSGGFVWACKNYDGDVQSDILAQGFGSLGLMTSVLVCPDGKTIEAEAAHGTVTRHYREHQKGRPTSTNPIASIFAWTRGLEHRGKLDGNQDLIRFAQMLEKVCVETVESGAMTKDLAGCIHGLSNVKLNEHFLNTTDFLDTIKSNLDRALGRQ
Procedure: 1.2 Cells: human glioblastoma cell line U87-MG, purchased from the American Type Culture Collection (ATCC);
Cell recovery: U87-MG (IDH2-R140Q) cells and U87-MG cells were put into a 37° C. water bath, then transferred to 15 mL of pre-warmed medium, centrifuged at 1000 rpm for 5 minutes, and the medium was discarded. The cells were resuspended in 15 mL of fresh medium, transferred to a T75 flask and cultured in a 37° C. incubator with 5% CO2. After 24 hours, the medium was changed to fresh medium.
Cell passage: The above-mentioned recovered cells were transferred to a 50 mL sterile centrifuge tube, centrifuged at 1000 rpm for 5 minutes, and the medium was discarded. The cells were resuspended evenly and counted. The cell density was adjusted appropriately in a 15 mL fresh medium, and then added to T75 culture flask. The culture flask was incubated in an incubator with 5% CO2 at 37° C.
After cells grown to a relatively high density in the culture dish, the cells were trypsinized, resuspended in medium (MEM+10% FBS), and counted. After adjusting the cell concentration, the resuspended cells were seeded in a 96-well plate at 5×10^3 cells per well. After inoculation, the cells were cultured for 24 hours until the cells adhered. The medium were sucked out, and the medium containing gradient concentration of compound was added, 100 μL per well. The cells were further cultured for 72 hours. The s 20 μL of upernatant was taken and put into a 2 mL 96-well sample-processing plate. 480 μL of dilution solution was added and shaken for mixing, and then centrifuged at 4500 rpm for 5 minutes. 200 μL of supernatant was transferred for LC-MS/MS injection analysis.
Column: Shim-pack XR-ODS 30L*2.0; mobile phase: acetonitrile-0.2% ammonia, 5 mM ammonium acetate aqueous solution; column temperature: 30° C.; flow rate: 0.4 mL/min; gradient elution conditions are as follows: […]
Atmospheric […] chemical ionization (APCI) was used. Source parameters was set as follows: IonSpray Voltage/IS-4500V; auxiliary gas 1 (Ion Source Gas 1/GS 1, N2), 55Arb; auxiliary gas 2 (Ion Source Gas 2, N2), 55Arb; auxiliary gas heating temperature (Temperature/TEM), 500° C.; curtain gas/CUR, 25Arb; collision gas/CAD, N2, 8 Pa.
Multi-ion reaction monitoring (MRM) in negative ion mode (Negative) was used. […] The internal standard (IS) MRM parameters: parent ion (Q 1 Mass), 178.0 Da; daughter ion (Q3 Mass), 149.0 Da; Decluster Potential (DP), −51V; collision voltage (Collision Energy/CE), −17 eV
By determining the 2-HG content in the cell culture supernatant of each well using LC-MS/MS, the mutant enzyme activity (2-HG remaining compared to untreated %) was calculated. The calculation formula: 2-HG remaining compared to untreated %=(Measured 2-HG level—U87-MG control 2-HG level)/(Untreated 2-HG level—U87-MG control 2-HG level)×100. […] Data were processed by GraphPad Prism v5.0 software and fitted to obtain IC50.

IDH2-R140Q mutant enzyme = target: T2, IDH2-R140Q mutant enzyme (Homo sapiens, UniProt P48735, R140Q); experiment: Inhibitory activity of compounds on IDH2-R140Q enzyme in vitro (diaphorase/resazurin fluorescence); type: biochemical; conditions: IDH2-R140Q, pre-incubated 16 h with enzyme and NADPH, reaction 1 h with α-ketoglutarate; read-out: R140Q IC50
T2 construct: purchased BPS 71100-1
T2 sequence (P48735 40-452 R140Q): T1 sequence (P48735 40-452 R140Q)
Procedure: Instrument: SpectraMax M3 Multi-Mode Microplate Reader, purchased from Molecular Devices.
In a 96-well plate, 40 μL of reaction buffer containing 2× enzyme (IDH2-WT or IDH2-R140Q) and cofactor (NADP or NADPH) was added to each well of the compound group and the DMSO control group, and 40 μL of reaction buffer containing 2× cofactor (NADP or NADPH) was added to each well of the enzyme-free control group.
20 μL of reaction buffer containing 4× compound to be tested was added to each well of the compound group. The compound was pre-formulated into 200× mother liquor with 100% DMSO; in the final reaction system, the concentration of DMSO was 0.5%. 20 μL of reaction buffer containing DMSO was added to each well of the DMSO control group; in the final reaction system, the concentration of DMSO was 0.5%.
The compound was mixed well with the enzyme and cofactor, and pre-incubated at room temperature for 16 h;
20 μL of reaction buffer containing 4× reaction substrate was added to each well. After mixed uniformly, the mixture was reacted at room temperature for 1 h.
3× termination and detection solution (it was prepared with reaction buffer, the final concentration of Diaphorase was 0.015 mg/mL, and the final concentration of Resazurin was 0.03 mM) was prepared. 40 μL of 3× termination and detection solution was added to each well of the enzyme reaction system. After mixed uniformly, the mixture was incubated at room temperature for 10 min;
Fluorescence values of two wells were obtained and averaged and the activity rate (Activity %) was calculated. The calculation formula: Activity %=(Measured data−Subtract background)/(DMSO Control−Subtract background)×100, wherein “Measured data” is fluorescence value of the compound in the pre-incubated wells, “Subtract background” is the fluorescence value of the enzyme-free control wells, and “DMSO Control” is the fluorescence value in the DMSO pre-incubated wells. Data was processed by GraphPad Prism v5.0 software and fitted to obtain IC50.

[2] = test system: U87-MG (IDH2-R140Q) subcutaneous xenograft tumor; experiment: Subcutaneous xenograft tumor caused by U87-MG (IDH2-R140Q) mutant cells in vivo: intratumor 2-HG; parameters: species or system BALB/c nude mice; conditions: for Intratumor 2-HG(%) after 10 days of administration: intragastric, mean, relative to U87-MG (IDH2-R140Q) control group; for ability of lowering 2-HG level compared with positive compound AG-221: U87-MG (IDH2-R140Q) subcutaneous xenograft model
Text: 1.2 Animals: BALB/c nude mice, 6-7 weeks old, female, 18-22 g, purchased from Nanjing Jinlaichang Company.
U87-MG (IDH2-R140Q) cells and U87-MG cells (wild type) were expanded, and cells in logarithmic growth phase were used for tumor inoculation in vivo. 16 mice were inoculated subcutaneously into the right lower back of the body at an amount of 2×10^6 cells/mouse (the volume ratio of cell suspension to Matrigel was 1:0.8).
The non-mutation control group was nude mice inoculated with U87-MG cells, and the test compound groups and vehicle control group were nude mice inoculated with U87-MG (IDH2-R140Q) cells.
Each group was intragastrically administered with a corresponding concentration of the compound solution, the administration volume was 100 μL/10 g body weight, and the control group was administered the same volume of blank vehicle.
After 10 days of administration, the mice were sacrificed. The tumors were exfoliated, homogenized, and the 2-HG content in the tumor was examined.
The 2-HG concentration in the homogenate of each animal tumor in each group was determined by LC-MS/MS. The percentage (2-HG %) was calculated; the calculation formula is as follows 2-HG %=(2-HG concentration of administration group tumor−2-HG concentration of U87-MG control group tumor)/(2-HG concentration of U87−MG(IDH2-R140Q) control group tumor−2-HG concentration of U87-MG control group tumor)×100%.

[3] = test system: human acute myeloid leukemia AM7577 cells; experiment: Human acute myeloid leukemia NOD/SCID animal model: survival; type: in vivo, NOD/SCID mice; conditions: gavage once a day for 14 days, 14 days after administration
Text: 1.1 Compounds to be tested: the compounds of the present disclosure prepared in the above examples, each of which was formulated into a solution in corresponding concentrations by using a vehicle (2% absolute ethanol:10% Solutol™: 88% physiological saline (v/v/v)).
1.2 Cells: human acute myeloid leukemia AM7577 cells, provided by Sino-American Crown Biotechnology (Beijing) Co., Ltd
1.4 Animals: NOD/SCID mice, 3-4 weeks old, female, purchased from Beijing Huakangkang Biotechnology Co., Ltd
Each mouse was inoculated through the tail vein at an amount of 2×10^6 cells resuspended in 100 uL of PBS.
Orbital blood samples of animals were collected weekly, labeled with human CD45, and the percentage of positive cells was detected. The animals were grouped when the percentage of peripheral blood CD45+ cells reached 5%. The proportion of peripheral blood CD45+ cells reached 5% on the 40th day after inoculation. After grouping, drugs were administered by gastric gavageonce once a day for 14 days.
The mortality rate of the animals after administration and the survival period of the surviving animals were observed.

## OC1CCCN(c2nc(Nc3ccnc(C(F)(F)F)c3)nc(-c3cccc(C(F)(F)F)n3)n2)C1 (centres unmarked) [Example 3, 4-(3-Hydroxypiperidin-1-yl)-6-(6-(trifluoromethyl)pyridin-2-yl)-N-(2-(trifluoromethyl)pyridin-4-yl)-1,3,5-triazin-2-amine]
[1]
  IC50: 24 nM
IDH2-R140Q mutant enzyme
  IC50: 22 nM
[2]; 12.5 mg/kg
  Intratumor 2-HG(%) after 10 days of administration: 22%

## FC1(F)CCCN(c2nc(Nc3ccnc(C(F)(F)F)c3)nc(-c3cccc(C(F)(F)F)n3)n2)C1 [Example 2, 4-(3,3-Difluoropiperidin-1-yl)-6-(6-(trifluoromethyl)pyridin-2-yl)-N-(2-(trifluoromethyl)pyridin-4-yl)-1,3,5-triazin-2-amine]
[1]
  IC50: 27 nM
IDH2-R140Q mutant enzyme
  IC50: 23 nM
[2]; 12.5 mg/kg
  Intratumor 2-HG(%) after 10 days of administration: 14%

## FC(F)(F)c1cc(Nc2nc(-c3cccc(C(F)(F)F)n3)nc(N3CC(F)(F)C(F)(F)C3)n2)ccn1 [Example 55, 4-(3,3,4,4-Tetrafluoropyrrolidin-1-yl)-6-(6-(trifluoromethyl)pyridin-2-yl)-N-(2-(trifluoromethyl)pyridin-4-yl)-1,3,5-triazin-2-amine]
[1]
  IC50: 15 nM
IDH2-R140Q mutant enzyme
  IC50: 10.1 nM
[2]; 6.25 mg/kg
  Intratumor 2-HG(%) after 10 days of administration: 1%
[2]
  ability of lowering 2-HG level compared with positive compound AG-221: substantially superior

## FC(F)(F)c1cc(Nc2nc(OCC(F)(F)C(F)(F)F)nc(-c3cccc(C(F)(F)F)n3)n2)ccn1 [Example 45, 4-(2,2,3,3,3-pentafluoropropoxy)-6-(6-(trifluoromethyl)pyridin-2-yl)-N-(2-(trifluoromethyl)pyridin-4-yl)-1,3,5-triazin-2-amine]
[1]
  IC50: 10.2 nM
IDH2-R140Q mutant enzyme
  IC50: 6.3 nM
[2]; 6.25 mg/kg
  Intratumor 2-HG(%) after 10 days of administration: 17%
[2]
  ability of lowering 2-HG level compared with positive compound AG-221: substantially superior

## O[C@@]1(C(F)(F)F)CCN(c2nc(Nc3ccnc(C(F)(F)F)c3)nc(-c3cccc(C(F)(F)F)n3)n2)C1 [Example 22B, (S)-4-(3-trifluoromethyl-3-hydroxypyrrolidin-1-yl)-6-(6-(trifluoromethyl)pyridin-2-yl)-N-(2-(trifluoromethyl)pyridin-4-yl)-1,3,5-triazin-2-amine]
[3]; 15 mg/kg, 8 animals per group
  Numbers of surviving animals: 7
[3]; 45 mg/kg, AG-221 group 4 animals, Example 22B group 8
  Numbers of surviving animals: 7
[2]
  ability of lowering 2-HG level compared with positive compound AG-221: substantially superior

## OC1(C(F)(F)F)CN(c2nc(Nc3ccnc(C(F)(F)F)c3)nc(-c3cccc(C(F)(F)F)n3)n2)C1 [Example 34]
[1]
  IC50: 17.1 nM
IDH2-R140Q mutant enzyme
  IC50: 14.1 nM
[2]; 12.5 mg/kg
  Intratumor 2-HG(%) after 10 days of administration: 24%

## N#C[C@H]1CCN(c2nc(Nc3ccnc(C(F)(F)F)c3)nc(-c3cccc(C(F)(F)F)n3)n2)C1 [Example 51, 4-((S)-3-cyanopyrrolidin-1-yl)-6-(6-(trifluoromethyl)pyridin-2-yl)-N-(2-(trifluoromethyl)pyridin-4-yl)-1,3,5-triazin-2-amine]
IDH2-R140Q mutant enzyme
  IC50: 18 nM
[2]; 6.25 mg/kg
  Intratumor 2-HG(%) after 10 days of administration: 38%
[2]
  ability of lowering 2-HG level compared with positive compound AG-221: substantially superior

## FC1(F)CCN(c2nc(Nc3ccnc(C(F)(F)F)c3)nc(-c3cccc(C(F)(F)F)n3)n2)CC1 [Example 1, 4-(4,4-Difluoropiperidin-1-yl)-6-(6-(trifluoromethyl)pyridin-2-yl)-N-(2-(trifluoromethyl)pyridin-4-yl)-1,3,5-triazin-2-amine]
[1]
  IC50: 15 nM
IDH2-R140Q mutant enzyme
  IC50: 11 nM
[2]; 25 mg/kg
  Intratumor 2-HG(%) after 10 days of administration: 22%
